Target: T1, human NaV 1.8 (Homo sapiens, UniProt Q9Y5Y9)
T1 construct: expressed in transfected cells; host or cells: HEK (recombinant cell line)
Experiment: Automated whole-cell patch clamp (Qube384) voltage-clamp recordings of sodium currents in HEK-NaV1.8 cell line
Type: cell-based
Settings: read-out: Potency category (human NaV 1.8 IC50)
Method: Electrophysiology: Voltage-Clamp Recordings
The following NaV1.8 recombinant cell line was used for recordings: HEK-NaV1.8 (NM_006514.1) with b3 (NM_018400.3).
Sodium currents were measured using the patch clamp technique in the whole-cell configuration using the Qube384 (Sophion A/S, Copenhagen, Denmark) automated voltage clamp platform. “Multi hole” plates were used for the cell line expressing NaV1.8 while “single hole” plates were used for the recombinant cell lines expressing the other subtypes. Appropriate filters (for minimum seal resistance and minimum current size) and series resistance compensation (for high quality sodium channel recordings) were applied. Data was collected at ambient room temperature or 19° C.
The recording extracellular solution contained (in mM): NaCl 145 mM, KCl 4 mM, CaCl2 2 mM, MgCl2 1 mM, HEPES 10 mM, Glucose 10 mM, pH 7.4 (NaOH). The intracellular recording solution contained (in mM): CsF 120 mM, CsCl 20 mM, NaCl 10 mM, EGTA 10 mM, HEPES 10 mM, pH 7.2 (CsOH). Currents were recorded at 25 kHz sampling frequency and filtered at 5 kHz. Series resistance compensation was applied at 65%.
Vehicle (VEH) is the control condition where cells are exposed to 0.3% DMSO without compound. All runs include VEH controls being exposed to the same voltage protocols to assess non-compound related phenomena such as run down and then used to isolate compound dependent effects on currents.
To check for state-dependent inhibition, the following voltage-sequence was applied every 20 seconds:
From a resting membrane potential of −120 mV, the first test pulse (P1; 20 ms to −10 mV) was applied to check for channels in the Resting State followed by a brief recovery (100 ms to −120 mV), then holding the membrane voltage to V1/2 (4 seconds at voltage to obtain half the channel at Rest and half Inactivated) with a subsequent second test pulse (P2; 20 ms to −10 mV) to check for channels in the Inactivated State, followed by another brief recovery (20 ms to −120 mV) and a final third test pulse (P3; 20 ms to −10 mV) to check for recovered channels.
To check for frequency-dependent inhibition, a 10 Hz protocol and a 20 Hz protocol were applied; namely,
From a resting membrane potential of −120 mV, 40-pulses (10 ms to −10 mV) was applied at 10 Hz (at 100 ms between pulses) and then at 20 Hz (at 50 ms between pulses).
Each parameter was recorded (P1, P2, P3, P40 from 10 Hz and P40 from 20 Hz) during a control period (lasting 5 minutes) when establishing the baseline and during compound period (lasting ~12 minutes) when test compound (or vehicle) was applied. For each parameter, the value at the end of the compound period was normalized to the vehicle baseline; as follows
To adjust for any variance in the Na^+ current signal during the compound period (owing to cumulative inactivation independent of compound or shifts in biophysics over time), a dedicated segment of the recording wells in each 384 plate were dedicated to having only vehicle exposure. These vehicle-only recordings were used to correct for any apparent “run-up” or “run-down” in the experiment.
The adjusted inhibition was calculated as follows: […]
Percent inhibition was determined and IC50 values were calculated using a 4 parameter logistic model within XLFit Software (IDBS, Boston MA): F
[formula] where A and B are the maximal and minimum inhibition respectively, C is the IC50 concentration and D is the (Hill) slope.

T1 sequence (Q9Y5Y9 whole entry): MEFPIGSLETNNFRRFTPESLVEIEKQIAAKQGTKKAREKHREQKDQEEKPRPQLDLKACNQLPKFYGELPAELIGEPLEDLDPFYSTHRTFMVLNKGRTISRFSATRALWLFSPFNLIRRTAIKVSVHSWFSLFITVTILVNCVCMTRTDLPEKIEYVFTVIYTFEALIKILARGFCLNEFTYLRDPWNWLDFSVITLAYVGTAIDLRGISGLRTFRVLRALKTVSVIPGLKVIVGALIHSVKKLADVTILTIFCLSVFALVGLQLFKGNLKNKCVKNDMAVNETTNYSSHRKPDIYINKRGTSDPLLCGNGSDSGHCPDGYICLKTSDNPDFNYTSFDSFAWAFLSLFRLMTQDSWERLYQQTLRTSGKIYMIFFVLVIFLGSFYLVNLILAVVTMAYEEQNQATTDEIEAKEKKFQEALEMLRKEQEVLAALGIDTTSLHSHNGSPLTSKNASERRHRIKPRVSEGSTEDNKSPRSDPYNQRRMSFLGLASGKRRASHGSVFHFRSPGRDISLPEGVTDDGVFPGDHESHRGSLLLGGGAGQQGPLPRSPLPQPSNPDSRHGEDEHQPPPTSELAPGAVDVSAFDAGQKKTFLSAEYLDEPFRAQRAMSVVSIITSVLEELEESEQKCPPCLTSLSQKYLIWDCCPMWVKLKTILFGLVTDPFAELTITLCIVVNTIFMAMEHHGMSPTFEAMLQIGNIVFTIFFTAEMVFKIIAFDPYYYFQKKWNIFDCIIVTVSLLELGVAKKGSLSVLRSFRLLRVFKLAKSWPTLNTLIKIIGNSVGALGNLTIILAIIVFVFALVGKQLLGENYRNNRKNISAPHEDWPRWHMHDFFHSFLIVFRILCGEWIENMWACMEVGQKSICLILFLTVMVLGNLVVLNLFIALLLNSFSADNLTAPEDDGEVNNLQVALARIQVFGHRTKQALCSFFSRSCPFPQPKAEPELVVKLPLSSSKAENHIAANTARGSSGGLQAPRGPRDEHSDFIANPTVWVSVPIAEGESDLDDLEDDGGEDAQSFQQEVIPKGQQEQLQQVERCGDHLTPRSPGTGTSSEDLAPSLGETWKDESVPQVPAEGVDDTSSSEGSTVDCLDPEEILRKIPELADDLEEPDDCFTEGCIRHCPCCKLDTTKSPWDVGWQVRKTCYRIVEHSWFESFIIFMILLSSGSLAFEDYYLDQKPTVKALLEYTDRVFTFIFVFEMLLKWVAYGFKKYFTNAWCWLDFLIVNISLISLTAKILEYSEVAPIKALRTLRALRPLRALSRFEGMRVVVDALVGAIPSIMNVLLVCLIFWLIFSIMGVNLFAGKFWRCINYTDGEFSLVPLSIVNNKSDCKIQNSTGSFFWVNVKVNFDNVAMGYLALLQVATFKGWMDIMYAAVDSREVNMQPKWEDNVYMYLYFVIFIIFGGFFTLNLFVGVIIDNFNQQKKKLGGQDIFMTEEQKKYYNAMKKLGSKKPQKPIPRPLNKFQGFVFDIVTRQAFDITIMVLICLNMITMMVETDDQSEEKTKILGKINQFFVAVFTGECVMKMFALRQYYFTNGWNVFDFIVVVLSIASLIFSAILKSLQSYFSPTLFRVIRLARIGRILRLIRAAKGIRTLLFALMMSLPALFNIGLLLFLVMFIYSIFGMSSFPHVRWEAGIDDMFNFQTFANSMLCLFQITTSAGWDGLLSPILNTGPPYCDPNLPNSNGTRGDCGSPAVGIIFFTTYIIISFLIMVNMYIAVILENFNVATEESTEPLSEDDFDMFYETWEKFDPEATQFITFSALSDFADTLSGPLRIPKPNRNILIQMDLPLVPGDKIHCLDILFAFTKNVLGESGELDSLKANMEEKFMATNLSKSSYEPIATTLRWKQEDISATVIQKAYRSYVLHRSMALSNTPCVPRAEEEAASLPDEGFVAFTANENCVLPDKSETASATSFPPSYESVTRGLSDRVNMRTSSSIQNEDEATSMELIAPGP

SMILES: CC1(Cn2nc(C3(C(F)(F)F)CC3)c(C(F)(F)F)c2C(=O)Nc2ccnc(S(C)(=N)=O)c2)CC(F)(F)C1 (single isomer, unassigned) [Example 144b, 1-((3,3-Difluoro-1-methylcyclobutyl)methyl)-N-(2-(S-methylsulfonimidoyl)pyridin-4-yl)-4-(trifluoromethyl)-3-(1-(trifluoromethyl)cyclopropyl)-1H-pyrazole-5-carboxamide]
- IC50: ≤ 100 nM

SMILES: C[C@@H]1C[C@H]1c1nn(CC2(C)CC(F)(F)C2)c(C(=O)Nc2ccnc([S@@](C)(=N)=O)c2)c1C(F)(F)F (single isomer, unassigned) [Example 65d, 1-((3,3-Difluoro-1-methylcyclobutyl)methyl)-3-((trans)-2-methylcyclopropyl)-N-(2-(S-methylsulfonimidoyl)pyridin-4-yl)-4-(trifluoromethyl)-1H-pyrazole-5-carboxamide]
- IC50: ≤ 100 nM

SMILES: C[S@@](=N)(=O)c1cc(NC(=O)c2c(C(F)(F)F)c(C3CC3)nn2C[C@]2(C)C[C@@H](C(F)(F)F)C2)ccn1 (single isomer, unassigned) [Example 86c, 3-cyclopropyl-1-(((cis)-1-methyl-3-(trifluoromethyl)cyclobutyl)methyl)-N-(2-(S-methylsulfonimidoyl)pyridin-4-yl)-4-(trifluoromethyl)-1H-pyrazole-5-carboxamide]
- IC50: ≤ 100 nM

SMILES: C[S@](=N)(=O)c1cc(NC(=O)c2c(C(F)(F)F)c(C3CC3)nn2C[C@H]2CC23CC3)ccn1 (single isomer, unassigned) [Example 78d, 3-cyclopropyl-N-(2-(S-methylsulfonimidoyl)pyridin-4-yl)-1-(spiro[2.2]pentan-1-ylmethyl)-4-(trifluoromethyl)-1H-pyrazole-5-carboxamide]
- IC50: ≤ 100 nM

SMILES: CC1(Cn2nc(C34CC(C3)C4)c(C(F)F)c2C(=O)Nc2ccnc(S(C)(=N)=O)c2)CC(F)(F)C1 (single isomer, unassigned) [Example 137b, 3-(Bicyclo[1.1.1]pentan-1-yl)-1-((3,3-difluoro-1-methylcyclobutyl)methyl)-4-(difluoromethyl)-N-(2-(S-methylsulfonimidoyl)pyridin-4-yl)-1H-pyrazole-5-carboxamide]
- IC50: ≤ 100 nM

SMILES: CC1(Cn2nc(C3(F)CC3)c(C(F)F)c2C(=O)Nc2cccc(S(C)(=N)=O)c2)CC(F)(F)C1 (single isomer, unassigned) [Example 135a, 1-((3,3-Difluoro-1-methylcyclobutyl)methyl)-4-(difluoromethyl)-3-(1-fluorocyclopropyl)-N-(3-(S-methylsulfonimidoyl)phenyl)-1H-pyrazole-5-carboxamide]
- IC50: ≤ 100 nM

SMILES: CC1(Cn2nc(C34CC(F)(C3)C4)c(C(F)(F)F)c2C(=O)Nc2cccc(S(C)(=N)=O)c2)CC(F)(F)C1 (single isomer, unassigned) [Example 111a, 1-((3,3-difluoro-1-methylcyclobutyl)methyl)-3-(3-fluorobicyclo[1.1.1]pentan-1-yl)-N-(3-(S-methylsulfonimidoyl)phenyl)-4-(trifluoromethyl)-1H-pyrazole-5-carboxamide]
- IC50: ≤ 100 nM

SMILES: Cc1cc(NC(=O)c2c(C(F)(F)F)c(C3CC3)nn2CC2(C)CC(F)(F)C2)cc(S(C)(=N)=O)n1 (single isomer, unassigned) [Example 50b, 3-cyclopropyl-1-((3,3-difluoro-1-methylcyclobutyl)methyl)-N-(2-methyl-6-(S-methylsulfonimidoyl)pyridin-4-yl)-4-(trifluoromethyl)-1H-pyrazole-5-carboxamide]
- IC50: ≤ 100 nM

SMILES: CC1(Cn2nc(C3CCC3)c(C(F)(F)F)c2C(=O)Nc2ccnc(S(C)(=N)=O)c2)CC(F)(F)C1 (single isomer, unassigned) [Example 56a, 3-cyclobutyl-1-((3,3-difluoro-1-methylcyclobutyl)methyl)-N-(2-(S-methylsulfonimidoyl)pyridin-4-yl)-4-(trifluoromethyl)-1H-pyrazole-5-carboxamide]
- IC50: ≤ 100 nM

SMILES: CC1(Cn2nc(C3(F)CC3)c(C(F)(F)F)c2C(=O)Nc2cc(F)cc(S(C)(=N)=O)c2)CC(F)(F)C1 (single isomer, unassigned) [Example 127a, 1-((3,3-Difluoro-1-methylcyclobutyl)methyl)-N-(3-fluoro-5-(S-methylsulfonimidoyl)phenyl)-3-(1-fluorocyclopropyl)-4-(trifluoromethyl)-1H-pyrazole-5-carboxamide]
- IC50: ≤ 100 nM

SMILES: C[S@](=N)(=O)c1cc(NC(=O)c2c(C(F)(F)F)c(C3CC3)nn2C[C@@H]2C(F)(F)C23CC3)ccn1 (single isomer, unassigned) [Example 79d, 3-cyclopropyl-1-((2,2-difluorospiro[2.2]pentan-1-yl)methyl)-N-(2-(S-methylsulfonimidoyl)pyridin-4-yl)-4-(trifluoromethyl)-1H-pyrazole-5-carboxamide]
- IC50: ≤ 100 nM

SMILES: CS(=N)(=O)c1cc(NC(=O)c2c(C(F)(F)F)c(C3CC3)nn2CC23CC(C(F)(F)F)(C2)C3)ccn1 (single isomer, unassigned) [Example 23b, 3-cyclopropyl-N-(2-(S-methylsulfonimidoyl)pyridin-4-yl)-4-(trifluoromethyl)-1-((3-(trifluoromethyl)bicyclo[1.1.1]pentan-1-yl)methyl)-1H-pyrazole-5-carboxamide]
- IC50: ≤ 100 nM

SMILES: CS(=N)(=O)c1cc(NC(=O)c2c(C(F)(F)F)c(C3CC3)nn2CC23CC2CC(F)(F)C3)ccn1 (single isomer, unassigned) [Example 95a, 3-Cyclopropyl-1-((3,3-difluorobicyclo[3.1.0]hexan-1-yl)methyl)-N-(2-(S-methylsulfonimidoyl)pyridin-4-yl)-4-(trifluoromethyl)-1H-pyrazole-5-carboxamide]
- IC50: ≤ 100 nM

SMILES: CC1(Cn2nc(C34CC(C3)C4)c(C(F)(F)F)c2C(=O)Nc2ccnc(S(C)(=N)=O)c2)CC(F)(F)C1 (single isomer, unassigned) [Example 58a, 3-(Bicyclo[1.1.1]pentan-1-yl)-1-((3,3-difluoro-1-methylcyclobutyl)methyl)-N-(2-(S-methylsulfonimidoyl)pyridin-4-yl)-4-(trifluoromethyl)-1H-pyrazole-5-carboxamide]
- IC50: ≤ 100 nM

SMILES: CC1(Cn2nc(C3CC3)c(C(F)(F)F)c2C(=O)Nc2cccc(S(C)(=N)=O)c2)CC(F)(F)C1 (single isomer, unassigned) [Example 45a, 3-cyclopropyl-1-((3,3-difluoro-1-methylcyclobutyl)methyl)-N-(3-(S-methylsulfonimidoyl)phenyl)-4-(trifluoromethyl)-1H-pyrazole-5-carboxamide]
- IC50: ≤ 100 nM

SMILES: CS(=N)(=O)c1cc(NC(=O)c2c(C(F)(F)F)c(C3CC3)nn2CC23CCC(F)(CC2)C3)ccn1 (single isomer, unassigned) [Example 106a, 3-cyclopropyl-1-((4-fluorobicyclo[2.2.1]heptan-1-yl)methyl)-N-(2-(S-methylsulfonimidoyl)pyridin-4-yl)-4-(trifluoromethyl)-1H-pyrazole-5-carboxamide]
- IC50: ≤ 100 nM

SMILES: CC1(Cn2nc(C34CC(F)(C3)C4)c(C(F)(F)F)c2C(=O)Nc2ccc(F)c(S(C)(=N)=O)c2)CC(F)(F)C1 (single isomer, unassigned) [Example 141a, 1-((3,3-Difluoro-1-methylcyclobutyl)methyl)-N-(4-fluoro-3-(S-methylsulfonimidoyl)phenyl)-3-(3-fluorobicyclo[1.1.1]pentan-1-yl)-4-(trifluoromethyl)-1H-pyrazole-5-carboxamide]
- IC50: ≤ 100 nM

SMILES: CC1(Cn2nc(C3(F)CC3)c(C(F)(F)F)c2C(=O)Nc2ccnc(S(C)(=N)=O)c2)CC(F)(F)C1 (single isomer, unassigned) [Example 70a, 1-((3,3-Difluoro-1-methylcyclobutyl)methyl)-3-(1-fluorocyclopropyl)-N-(2-(S-methylsulfonimidoyl)pyridin-4-yl)-4-(trifluoromethyl)-1H-pyrazole-5-carboxamide]
- IC50: ≤ 100 nM

From patent US12685726B2, “Sulfoximines as inhibitors of NaV1.8” (Gruenenthal GmbH, priority 2022, dated 2026)
